Reference: patent publication EP1074549B1, “Tetrahydro-benzo(d)azepines and their use as antagonists at metabotropic glutamate receptors” (F. HOFFMANN-LA ROCHE AG, priority 1999, dated 2001)

How the values were obtained:
rat mGluR1a receptor [1] = target: T1, rat mGluR1a receptor (Rattus norvegicus, UniProt P23385); assay: functional assay for the characterization of mGluR 1 antagonistic properties ([Ca2+]i measurement, FLIPR); assay type: cell-based; details: mGluR1a transfected HEK-EBNA cells; 10 µM glutamate as agonist; antagonists applied 5 minutes prior to agonist; read-out: F-IC 50
T1 construct: expressed in transfected cells; host or cells: HEK 293 cells (transient transfection), membrane preparation
T1 sequence (P23385 19-1199): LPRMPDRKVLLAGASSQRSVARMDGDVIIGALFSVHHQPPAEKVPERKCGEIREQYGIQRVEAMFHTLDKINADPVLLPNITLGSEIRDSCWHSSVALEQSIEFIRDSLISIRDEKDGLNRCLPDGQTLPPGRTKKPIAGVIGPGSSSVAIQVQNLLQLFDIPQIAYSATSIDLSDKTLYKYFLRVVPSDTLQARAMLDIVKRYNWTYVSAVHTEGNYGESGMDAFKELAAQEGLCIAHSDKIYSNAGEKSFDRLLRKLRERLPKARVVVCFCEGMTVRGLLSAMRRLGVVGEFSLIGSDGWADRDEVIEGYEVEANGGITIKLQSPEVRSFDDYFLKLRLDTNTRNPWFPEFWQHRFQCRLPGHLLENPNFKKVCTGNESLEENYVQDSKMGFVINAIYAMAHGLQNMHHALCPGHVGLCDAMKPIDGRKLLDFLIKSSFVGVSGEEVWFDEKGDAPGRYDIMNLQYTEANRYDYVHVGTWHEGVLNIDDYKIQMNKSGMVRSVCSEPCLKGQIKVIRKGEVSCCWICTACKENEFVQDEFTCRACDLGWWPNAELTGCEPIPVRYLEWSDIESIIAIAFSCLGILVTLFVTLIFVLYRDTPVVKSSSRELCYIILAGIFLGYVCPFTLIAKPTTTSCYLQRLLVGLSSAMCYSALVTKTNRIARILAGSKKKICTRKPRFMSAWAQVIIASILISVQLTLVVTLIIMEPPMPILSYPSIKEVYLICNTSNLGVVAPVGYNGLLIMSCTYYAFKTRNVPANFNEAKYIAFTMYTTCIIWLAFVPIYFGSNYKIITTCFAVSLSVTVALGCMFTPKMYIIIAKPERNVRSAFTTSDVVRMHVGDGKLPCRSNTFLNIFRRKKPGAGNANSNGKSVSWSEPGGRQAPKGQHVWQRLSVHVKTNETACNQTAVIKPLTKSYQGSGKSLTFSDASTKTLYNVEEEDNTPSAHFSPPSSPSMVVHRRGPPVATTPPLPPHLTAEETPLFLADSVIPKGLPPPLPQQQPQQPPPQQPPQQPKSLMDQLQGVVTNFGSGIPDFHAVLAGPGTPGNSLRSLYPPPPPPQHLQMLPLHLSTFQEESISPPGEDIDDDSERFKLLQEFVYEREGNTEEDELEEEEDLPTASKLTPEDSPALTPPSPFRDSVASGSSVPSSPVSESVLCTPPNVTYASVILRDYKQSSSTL
Experimental: a) functional assay for the characterization of mGluR 1 antagonistic properties
cDNA encoding rat mGluR1a receptor obtained from Prof. S. Nakanishi (Kyoto, Japan) was transiently transfected into HEK-EBNA cells using a procedure described by Schlaeger et. al., New Dev. New Appl. Anim. Cell Techn., Proc. ESACT Meet., 15th ( 1998), 105-112 and 117-120. [Ca^2+]i measurements were performed on mGluR1a transfected HEK-EBNA cells after incubation of the cells with Fluo-3 AM (0.5 µM final concentration) for 1 hour at 37 °C followed by 4 washes with assay buffer (DMEM supplemented with Hank's salt and 20 mM HEPES. [Ca^2+]i measurements were done using a fluorometric imaging plate reader (FLIPR, Molecular Devices Corporation, La Jolla, CA, USA). 10 µM glutamate as agonist was used to evaluate the potency of the antagonists.
Increasing concentrations of antagonists were applied to the cells 5 minutes prior to the application of the agonist. The inhibition (antagonists) curves were fitted with a four parameter logistic equation giving IC50, and Hill coefficient using the iterative nonlinear curve fitting software Origin (Microcal Software Inc., Northampton, MA, USA).

rat mGluR1a receptor [2] = target: T1, rat mGluR1a receptor; assay: binding assay for the characterization of mGluR 1 antagonistic properties (tritiated radioligand displacement); details: membranes from HEK 293 cells transfected with rat mGluR1a; tritiated 1-ethyl-2-methyl-6-oxo-4-(1,1,2-tritritio-1,2,4,5-tetrahydro-benzo[d]azepin-3-yl)-1,6-dihydro-pyrimidine-5-carbonitrile at 3 nM; 1 hour at room temperature; read-out: B-IC 50
Experimental: b) binding assay for the characterization of mGluR 1 antagonistic properties
Binding assay with tritiated 1-ethyl-2-methyl-6-oxo-4-(1,1,2-tritritio-1,2,4,5-tetrahydro-benzo[d]azepin-3-yl)-1,6-dihydro-pyrimidine-5-carbonitrile: HEK 293 cells were transiently transfected with the rat mGluR1a receptor. The cells were collected and washed 3 times with PBS. The cell pellets were frozen at -80 °C. Membranes were prepared from HEK 293 cells transfected with the rat mGluR1a receptor and used in the binding experiments at 10 µg proteins per assay after resuspension in a HEPES NaOH 20mM, pH=7.4 binding buffer. 1-Ethyl-2-methyl-6-oxo-4-(1,1,2-tritritio-1,2,4,5-tetrahydro-benzo[d]azepin-3-yl)-1,6-dihydro-pyrimidine-5-carbonitrile (S.A 33.4Ci/mmol) was used at 3 nM final concentration. The incubation with variable concentrations of potential inhibitors was performed for 1 hour at room temperature, the incubate was then filtered onto GF/B glass fiber filter preincubated 1 hour in PEI 0,1% and washed 3 times with 1ml of cold binding buffer. The radioactivity retained on the unifilter 96 was counted using a Topcount β counter. After correction for non specific binding the data were normalized and the IC50 value calculated using a 4 parameters logistic equation which was fitted to the inhibition curve.

Compound `Cc1nc(N2CCc3ccccc3CC2)c([N+](=O)[O-])c(=O)n1CC(F)(F)F` [Example 11, 2-Methyl-5-nitro-6-(1,2,4,5-tetrahydro-benzo[d]azepin-3-yl)-3-(2,2,2-trifluoro-ethyl)-3H-pyrimidin-4-one] has an IC50 (rat mGluR1a receptor [1]) of 0.008 µM and an IC50 (rat mGluR1a receptor [2]) of 0.018 µM.

Work on `Cc1nc(N2CCc3ccccc3CC2)c(C#N)c(=O)[nH]1` [Example 17, 2-Methyl-6-oxo-4-(1,2,4,5-tetrahydro-benzo[d]azepin-3-yl)-1,6-dihydro-pyrimidine-5-carbonitrile] yielded an IC50 (rat mGluR1a receptor [1]) of 0.088 µM and an IC50 (rat mGluR1a receptor [2]) of 0.33 µM.

For `CCNc1nc(N2CCc3ccccc3CC2)c(C#N)c(=O)[nH]1` [Example 25, 2-Ethylamino-6-oxo-4-(1,2,4,5-tetrahydro-benzo[d]azepin-3-yl)-1,6-dihydro-pyrimidine-5-carbonitrile], the IC50 (rat mGluR1a receptor [1]) was 0.005 µM and the IC50 (rat mGluR1a receptor [2]) was 0.015 µM.

Compound `CCn1c(N)nc(N2CCc3ccccc3CC2)c(C#N)c1=O` [Example 30, 2-Amino-1-ethyl-6-oxo-4-(1,2,4,5-tetrahydro-benzo[d]azepin-3-yl)-1,6-dihydro-pyrimidine-5-carbonitrile] has an IC50 (rat mGluR1a receptor [1]) of 0.009 µM and an IC50 (rat mGluR1a receptor [2]) of 0.003 µM.

For `Cc1nc(N2CCc3ccccc3CC2)c(C#N)c(=O)n1CC(F)(F)F` [Example 78, 2-Methyl-6-oxo-4-(1,2,4,5-tetrahydro-benzo[d]azepin-3-yl)-1-(2,2,2-trifluoro-ethyl)-1,6-dihydro-pyrimidine-5-carbonitrile], the IC50 (rat mGluR1a receptor [1]) was 0.026 µM and the IC50 (rat mGluR1a receptor [2]) was 0.011 µM.

In the case of `N#Cc1c(N2CCc3ccccc3CC2)nc2n(c1=O)CCC2` [Example 126, 4-Oxo-2-(1,2,4,5-tetrahydro-benzo[d]azepin-3-yl)-4,6,7,8-tetrahydro-pyrrolo[1,2-a]pyrimidine-3-carbonitrile], the IC50 (rat mGluR1a receptor [1]) is reported as 0.1 µM and the IC50 (rat mGluR1a receptor [2]) is reported as 0.72 µM.

In the case of `CCn1c(C)nc(N2CCc3ccc(F)cc3CC2)c([N+](=O)[O-])c1=O` [Example 132, 3-Ethyl-6-(7-fluoro-1,2,4,5-tetrahydro-benzo[d]azepin-3-yl)-2-methyl-5-nitro-3H-pyrimidin-4-one], the IC50 (rat mGluR1a receptor [1]) is reported as 0.014 µM and the IC50 (rat mGluR1a receptor [2]) is reported as 0.08 µM.

For `CCn1c(NC=O)nc(N2CCc3ccccc3CC2)c(C#N)c1=O` [Example 154, N-[5-cyano-1-ethyl-6-oxo-4-(1,2,4,5-tetrahydro-benzo[d]azepin-3-yl)-1,6-dihydro-pyrimidin-2-yl]-formamide], the IC50 (rat mGluR1a receptor [1]) was 0.21 µM and the IC50 (rat mGluR1a receptor [2]) was 0.01 µM.

Work on `N#Cc1c(OCC(F)(F)F)nc(NCCCN2CCOCC2)nc1N1CCc2ccccc2CC1` [Example 174, 2-(3-Morpholin-4-yl-propylamino)-4-(1,2,4,5-tetrahydro-benzo[d]azepin-3-yl)-6-(2,2,2-trifluoro-ethoxy)-pyrimidine-5-carbonitrile] yielded an IC50 (rat mGluR1a receptor [1]) of 0.97 µM and an IC50 (rat mGluR1a receptor [2]) of 0.088 µM.

Work on `N#Cc1c(OCC(F)(F)F)nc(NCCO)nc1N1CCc2ccccc2CC1` [Example 190, 2-(2-Hydroxy-ethylamino)-4-(1,2,4,5-tetrahydro-benzo[d]azepin-3-yl)-6-(2,2,2-trifluoro-ethoxy)-pyrimidine-5-carbonitrile] yielded an IC50 (rat mGluR1a receptor [1]) of 0.2 µM and an IC50 (rat mGluR1a receptor [2]) of 0.007 µM.

With `CNn1c(C)nc(N2CCc3ccccc3CC2)c(C#N)c1=O` [Example 214, 2-Methyl-1-methylamino-6-oxo-4-(1,2,4,5-tetrahydro-benzo[d]azepin-3-yl)-1,6-dihydro-pyrimidine-5-carbonitrile] the IC50 (rat mGluR1a receptor [1]) was 0.12 µM and the IC50 (rat mGluR1a receptor [2]) was 0.02 µM.

`Cc1nc(N2CCc3ccccc3CC2)c(C#N)c(=O)n1OCC(F)(F)F` [Example 220, 2-Methyl-6-oxo-4-(1,2,4,5-tetrahydro-benzo[d]azepin-3-yl)-1-(2,2,2-trifluoro-ethoxy)-1,6-dihydro-pyrimidine-5-carbonitrile] gave an IC50 (rat mGluR1a receptor [1]) of 0.038 µM and an IC50 (rat mGluR1a receptor [2]) of 0.002 µM.

`CSc1nc(N)nc(N2CCc3ccccc3CC2)c1C#N` [Example 249, 2-Amino-4-methylsulfanyl-6-(1,2,4,5-tetrahydro-benzo[d]azepin-3-yl)-pyrimidine-5-carbonitrile] gave an IC50 (rat mGluR1a receptor [1]) of 0.023 µM and an IC50 (rat mGluR1a receptor [2]) of 0.011 µM.
